The compounds below were run against MCH receptor (Homo sapiens, UniProt Q99705) (assay: High throughput functional screening FLIPR/FDSS6000: inhibition of MCH-evoked intracellular Ca2+ changes). Settings: class by percent of control at 10^−7 M or by IC50; read-out: class.
Format: cell-based
Description: Subsequently, a functional based assay was used to confirm the lead hits, referred to as FLIPR™ (the Fluorometric Imaging Plate Reader) and FDSS6000™ (Functional Drug Screening System). This assay utilized 3 non-endozenous, constitutively active version of the MCH receptor.
The FLIPR and FDSS assays are able to detect intracellular Ca^2+ concentration in cells, which can be utilized to assess receptor activation and determine whether a candidate compound is an, for example, antagonist, inverse agonist or agonist to a Gq-coupled receptor. The concentration of free Ca^2+ in the cytosol of any cell is extremely low, whereas its concentration in the extracellular fluid and endoplasmic reticulum (ER) is very high. Thus, there is a large gradient tending to drive Ca^2+ into the cytosol across both the plasma membrane and ER. The FLIPR™ and FDSS6000™ systems (Molecular Devices Corporation, HAMAMATSU Photonics K.K.) are designed to perform functional cell-based assays, such as the measurement of intracellular calcium for high-throughput screening, The measurement of fluorescent is associated with calcium release upon activation of the Gq-coupled receptors.
Fluorometric Imaging Plate Reader system was used to allow for rapid, kinetic measurements of intracellular fluorescence in 96 well microplates (or 384 well microplates). Simultaneous measurements of fluorescence in all wells can be made by FLIPR or FDSS6000™ every second with high sensitivity and precision. These systems are ideal for measuring cell-based functional assays such as monitoring the intracellular calcium fluxes that occur within seconds after activation of the Gq coupled receptor.
Briefly, the cells are seeded into 96 well at 5.5×10^4 cells/well with complete culture media (Dulbecco's Modified Eagle Medium with 10% fetal bovine serum, 2 mMi L-glutamine, 1 mM sodium pyruvate and 0.5 mg/ml G418, pH 7.4) for the assay next day. On the day of assay, the media is removed and the cells are incubated with 100 μl of loading buffer (4 μM Fluo4-AM in complete culture media containing 2.5 mM Probenicid, 0.5 mg/ml and 0.2% bovine serum albumin) in 5% CO2 incubator at 37° C. for 1 hr. The loading buffer is removed, and the cells are washed with wash buffer (Hank's Balanced Salt Solution containing 2.5 mM Probenicid, 20 mM HEPES, 0.5 mg/ml and 0.2% bovine serum albumm, pH 7.4)). One hundred fifty μl of wash buffer containing various concentrations of test compound is added to the cells, and the cells are incubated in 5% CO2 incubator at 37° C. for 3 min. Fifty μl of wash buffer containing various concentration of MCH are added to each well, and transient changes in [Ca^2+]i evokled bee MCH are monoitored using the FLIPR, or FDSS in 96 shell plates at Ex. 488 nm and Em. 530 nm for 290 second. When antagonist activity of compound is tested, 50 nM of MCH is used.
Use of FLIPR™ and FDSS6000™ can be accomplished by following manufacturer's instruction (Molecular Device Corporation and HAMAMATSU Photonics K.K.).

SMILES	IC50
COc1cc(CNC(=O)[C@H]2CC[C@@H](Nc3nc(N(C)C)c4cc(F)c(F)cc4n3)CC2)cc(OC)c1 [Example 993, cis-N-(3,5-dimethoxybenzyl)-4-{[4-(dimethylamino)-6,7-difluoroquinazolin-2-yl]amino}cyclohexanecarboxamide]	50 to 200 nM
COc1ccc(CNC(=O)[C@H]2CC[C@@H](Nc3nc(N(C)C)c4cc(F)c(F)cc4n3)CC2)cc1 [Example 994, cis-4-{[4-(dimethylamino)-6,7-difluoroquinazolin-2-yl]amino}-N-(4-methoxybenzyl)cyclohexanecarboxamide]	< 50 nM
COc1cccc(CNC(=O)[C@H]2CC[C@@H](Nc3nc(N(C)C)c4cc(F)c(F)cc4n3)CC2)c1 [Example 995, cis-4-{[4-(dimethylamino)-6,7-difluoroquinazolin-2-yl]amino}-N-(3-methoxybenzyl)cyclohexanecarboxamide]	50 to 200 nM
CN(C)c1nc(N[C@H]2CC[C@@H](C(=O)NCc3ccc(Cl)nc3)CC2)nc2cc(F)c(F)cc12 [Example 996, cis-N-[(6-chloropyridin-3-yl)methyl]-4-{[4-(dimethylamino)-6,7-difluoroquinazolin-2-yl]amino}cyclohexanecarboxamide]	50 to 200 nM
CN(C)c1nc(N[C@H]2CC[C@@H](C(=O)NCc3ccc(F)cc3F)CC2)nc2cc(F)c(F)cc12 [Example 997, cis-N-(2,4-difluorobenzyl)-4-{[4-(dimethylamino)-6,7-difluoroquinazolin-2-yl]amino}cyclohexanecarboxamide]	> 200 nM
CN(C)c1nc(N[C@H]2CC[C@@H](C(=O)NCc3cccc(C(F)(F)F)c3)CC2)nc2cc(F)c(F)cc12 [Example 998, cis-4-{[4-(dimethylamino)-6,7-difluoroquinazolin-2-yl]amino}-N-[3-(trifluoromethyl)benzyl]cyclohexanecarboxamide]	< 50 nM
CN(C)c1nc(N[C@H]2CC[C@@H](C(=O)NCc3ccc(C(F)(F)F)cc3)CC2)nc2cc(F)c(F)cc12 [Example 999, cis-4-{[4-(dimethylamino)-6,7-difluoroquinazolin-2-yl]amino}-N-[4-(trifluoromethyl)benzyl]cyclohexanecarboxamide]	50 to 200 nM

More lines, now with the values ahead:

IC50	SMILES
< 50 nM	CN(C)c1nc(N[C@H]2CC[C@@H](C(=O)NCc3ccc(Cl)cc3Cl)CC2)nc2cc(F)c(F)cc12 [Example 1000, cis-N-(2,4-dichlorobenzyl)-4-{[4-(dimethylamino)-6,7-difluoroquinazolin-2-yl]amino}cyclohexanecarboxamide]
< 50 nM	CN(C)c1nc(N[C@H]2CC[C@@H](C(=O)NCc3cc(Cl)cc(Cl)c3)CC2)nc2cc(F)c(F)cc12 [Example 1001, cis-N-(3,5-dichlorobenzyl)-4-{[4-(dimethylamino)-6,7-difluoroquinazolin-2-yl]amino}cyclohexanecarboxamide]
< 50 nM	CN(C)c1nc(N[C@H]2CC[C@@H](C(=O)NCc3ccc(Br)cc3)CC2)nc2cc(F)c(F)cc12 [Example 1002, cis-N-(4-bromobenzyl)-4-{[4-(dimethylamino)-6,7-difluoroquinazolin-2-yl]amino}cyclohexanecarboxamide]
< 50 nM	CN(C)c1nc(N[C@H]2CC[C@@H](C(=O)NCc3ccccc3Br)CC2)nc2cc(F)c(F)cc12 [Example 1003, cis-N-(2-bromobenzyl)-4-{[4-(dimethylamino)-6,7-difluoroquinazolin-2-yl]amino}cyclohexanecarboxamide]
< 50 nM	CN(C)c1nc(N[C@H]2CC[C@@H](C(=O)NCc3ccc(OC(F)(F)F)cc3)CC2)nc2cc(F)c(F)cc12 [Example 1004, cis-4-{[4-(dimethylamino)-6,7-difluoroquinazolin-2-yl]amino}-N-[4-(trifluoromethoxy)benzyl]cyclohexanecarboxamide]
> 200 nM	CN(C)c1nc(N[C@H]2CC[C@@H](C(=O)NCc3cc(C(F)(F)F)cc(C(F)(F)F)c3)CC2)nc2cc(F)c(F)cc12 [Example 1005, cis-N-[3,5-bis(trifluoromethyl)benzyl]-4-{[4-(dimethylamino)-6,7-difluoroquinazolin-2-yl]amino}cyclohexanecarboxamide]

From patent US20070010671A1, “Novel quinazoline derivatives and methods of treatment related to the use thereof” (priority 2003, published 2007)
